{"source": "paper PMC3176149", "about": "“Application of Celluspots peptide arrays for the analysis of the binding specificity of epigenetic reading domains to modified histone tails” (BMC Biochemistry, 2011)", "key": {"[1]": {"test_system": "Dnmt3a PWWP domain (residues 279-420)", "assay": "Binding of GST-fused Dnmt3a PWWP domain to modified histone peptides on Celluspots peptide arrays", "set-up": "species or system murine", "conditions": "Dnmt3a PWWP GST fusion 50 nM, room temperature, 2 hours, interaction buffer pH 7.5, ECL, tested at least two times", "protocol": "In the present study, the binding specificities of seven known reading domains were analyzed using Celluspots peptide arrays comprising 384 peptides from 8 different regions of the N-terminal histone tails, viz. H3 1-19, 7-26, 16-35 and 26-45, H4 1-19 and 11-30, H2A 1-19 and H2B 1-19. The arrays are commercially available from Active Motif and feature 59 post-translational modifications (most of them identified, some of them hypothetical) in many different combinations (Additional file 1). Binding of the GST fused reading domain proteins to peptide arrays was visualized using an anti-GST antibody, followed by a secondary anti-goat-HRP antibody and ECL detection system. The domains were selected to represent the different folds of reading domains and show a wide range of specificities. […] Each reading domain was tested at least two times on the peptide arrays to ensure that the results are reliable. […] The binding intensities for each tested reading domain were analyzed with the Array Analyze program, which calculates the average of the binding intensities to corresponding peptide spots in both copies of the array and prepares a graphical output - one scatter plot illustrating the binding intensities observed at corresponding spots in both copies of the array and a bar diagram showing the distribution of deviations of the binding intensities to the corresponding spots. […]"}, "Dnmt3a PWWP domain": {"test_system": "Dnmt3a PWWP domain", "conditions": "SPOT arrays and follow-up experiments; ref [19]; cited from earlier work", "protocol": "These binding modules are about 50 amino acids long and contain two binding sites for zinc ions. The PHD finger of Rag2, an essential component of the Rag1/2 V(D)J recombinase, which mediates antigen-receptor gene assembly, interact ... || Another reading domain which was tested on the Celluspots peptide arrays is the PWWP domain of Dnmt3a. […] Since there is only one H3K36me3-modified peptide spot, the effect of enhancing or inhibiting secondary modifications could not be studied in this case. […] Since peptide arrays are screening tools, unexpected or novel results need to be confirmed by equilibrium peptide binding experiments using purified peptides. In our experience, such studies often confirmed results from peptide arrays. For example in the case of the Dnmt3a PWWP domain, binding ..."}, "[2]": {"test_system": "53BP1 tandem Tudor domain (residues 1490-1608)", "assay": "Binding of GST-fused 53BP1 tandem Tudor domain to modified histone peptides on Celluspots peptide arrays", "set-up": "species or system human", "conditions": "53BP1 tandem Tudor GST fusion 1 μM, room temperature, 2 hours, interaction buffer pH 7.5, ECL, tested at least two times", "protocol": "(§1) In the present study, the binding specificities of seven known reading domains were analyzed using Celluspots peptide arrays comprising 384 peptides from 8 different regions of the N-terminal histone tails, viz. H3 1-19, 7-26, 16-35 and 26-45, H4 1-19 and 11-30, H2A 1-19 and H2B 1-19. The arrays are commercially available from Active Motif and feature 59 post-translational modifications (most of them identified, some of them hypothetical) in many different combinations (Additional file 1). Binding of the GST fused reading domain proteins to peptide arrays was visualized using an anti-GST antibody, followed by a secondary anti-goat-HRP antibody and ECL detection system. […] In case of weak signals, the experiment was repeated with higher protein concentration. In case of an overexposed image, the protein concentration was reduced. For quality control, each glass slide contains two identical copies of the array. […] The sequences encoding human HP1ß full length (residues 1-185), the Chromo domain of human MPP8 (residues 58-112), the double Tudor domain of human JMJ[…] (residues 856-1047), the tandem Tudor domain of human 53BP1 (residues 1490-1608), the PHD finger of human Rag2 (residues 311-520) and the second Bromo domain of human BRD2 (residues 348-455) were amplified from cDNA derived from HEK293 cells and cloned as GST fusion proteins into the pGEX-6P-2 vector (GE Healthcare)."}, "[3]": {"test_system": "53BP1 tandem Tudor domain", "conditions": "ref [14],[15]; cited from earlier work", "excerpt": "(§2) The Tudor domain folds into a ß-sandwich flanked by one α-helix."}, "[4]": {"test_system": "JMJD2A double Tudor domain (residues 856-1047)", "assay": "Binding of GST-fused JMJD2A double Tudor domain to modified histone peptides on Celluspots peptide arrays", "set-up": "species or system human", "conditions": "JMJD2A double Tudor GST fusion 10 nM, room temperature, 2 hours, interaction buffer pH 7.5, ECL, tested at least two times", "protocol": "as §1"}, "[5]": {"test_system": "JMJD2A double Tudor domain", "conditions": "ref [14],[17],[18]; cited from earlier work", "excerpt": "as §2"}}, "note": "“Also recorded” adds a separate entry of the source."}
{"substance": "H3K36me2: H3K36me2 modified histone tail peptide on Celluspots array", "values": [{"measurement": "binding to modified histone tail peptides (array signal)", "setting": "[1]", "result": "weaker binding signal in comparison to H3K36me3"}]}
{"substance": "H3K36me3: H3K36me3-modified peptide spot on Celluspots array (only one)", "values": [{"measurement": "binding to modified histone tail peptides (array signal)", "setting": "[1]", "result": "specifically bound"}, {"measurement": "interaction with Dnmt3a PWWP domain (literature)", "setting": "Dnmt3a PWWP domain", "result": "specific interaction; also recorded: could be verified by peptide binding, pull-down of native nucleosomes and functional DNA methylation experiments; also recorded: shown to read H3K36me3"}]}
{"substance": "H4K20me1: H4K20me1 modified histone tail peptide on Celluspots array", "values": [{"measurement": "binding to modified histone tail peptides (array signal)", "setting": "[2]", "result": "not observed on the peptide array"}, {"measurement": "interaction with 53BP1 tandem Tudor domain (literature)", "setting": "[3]", "result": "reported to interact"}]}
{"substance": "H4K20me2: H4K20me2 modified histone tail peptide on Celluspots array", "values": [{"measurement": "binding to modified histone tail peptides (array signal)", "setting": "[4]", "result": "next best bound modification on the peptide array"}, {"measurement": "interaction with 53BP1 tandem Tudor domain (literature)", "setting": "[3]", "result": "reported to interact; also recorded: shown to interact"}, {"measurement": "binding to JMJD2A double Tudor domain (literature)", "setting": "[5]", "result": "interact preferentially; also recorded: reported to bind"}]}
